These results are taken from patent US10471028B2, “Small molecule efflux pump inhibitors” (UNIVERSITY OF ROCHESTER, priority 2014, dated 2019).

In assay [1] the test system is A. baumannii strain 98-37-09. Briefly: Cellular accumulation of minocycline (HPLC, triple-quadrupole MS). Type of assay: cell-based, Acinetobacter baumannii. Conditions: human serum with 0.5 μg mL^−1 minocycline plus test compound (0.5×MEC, 1×MEC), 48 hours. The method, then: High pressure liquid chromatography and triple-quadrupole mass spectrometry were used to measure the A. baumannii intracellular levels of minocycline during growth in human serum in the absence and presence of each putative efflux pump inhibitor. […] Cultures were incubated for 48 hours with shaking, at which point an aliquot was removed, serially diluted, and plated to determine the number of viable CFU per mixture. The remainder of the cells were pelleted by centrifugation at 900×g at 4° C., washed twice in PBS, mechanically lysed with a FastPrep cell disrupter (MP Biomedicals, Santa Ana, Calif.) for 20 seconds at 5 m s^−1 and the cellular debris was pelleted via centrifugation at 900×g and 4° C. The amount of minocycline present within the supernatant of ruptured cells was measured. Briefly, doxycycline (0.5 μg mL^−1) was first added to each supernatant to serve as an internal control to account for sample-to-sample preparation variability. The supernatant was then combined with acetonitrile (ACN) at a 1:10 ratio and centrifuged at 16,000×g, at 4° C., to collect minocycline and doxycycline. […] residual liquid was evaporated in a speed vacuum for 2 hours at 8,000×g. To quantify the amount of antibiotics retained, sample materials were suspended in 50% acetonitrile, filtered through a 0.2 μm low protein binding hydrophilic membrane (Millipore, Billerica, Mass.) then separated on Shimadzu high performance liquid chromatography instrument (Fisher Scientific) using a BetaBasic C18 reverse phase column (Thermo Scientific). Separation was carried out with two mobile phase solutions consisting of solution (A) water with 0.1% formic acid and solution (B) 100% ACN. The gradient profile of the chromatography runs was as follows: from 0 to 0.1 min 8% solution B, ramp step wise (37% to 60% solution B) from 0.1 to 6.5 min then holding for one minute before ramping down from 60% to 10% from 7.5 to 8 min. This was followed a hold at 10% solution B for one minute. […] The column was equilibrated in 8% solution B at 40° C. and the flow rate was set to 0.2 mL min^−1. Mass spectrometry analysis of fractions was carried out using a Thermo TSQ Quantum Ultra triple quadrupole mass spectrometer (Fisher Scientific). Data were analyzed using Xcalibur software (Thermo Scientific); the following parameters were used to detect minocycline and the internal control doxycycline: 458.208 m/z→282.971 m/z (collision energy=43, tube lens=119) for minocycline and 445.144 m/z→266.900 m/z (collision energy=39, tube lens=127) for doxycycline. Analysis of the raw data was conducted by using the area under the curve calculations with the Genesis algorithm to determine the concentration in each sample. The difference between the peak intensity and the y intercept of pre-established minocycline and doxycycline standard curves was divided by the slope of the standard curve to quantify the amount of minocycline within each sample. The total concentration of minocycline within each cell was calculated by normalizing to the number of cells within each corresponding culture.

In assay [2] the test system is A. baumannii strain 98-37-09. The assay is described as follows: MEC determination: potentiation of minocycline toward serum grown A. baumannii. Conditions: for Log-reduction Colony Forming Units (ml^−1): 1×MEC of compound plus minocycline in serum, versus minocycline alone, plating; for MEC: lowest concentration inhibiting growth in 100% human serum with 0.5 μg ml^−1 minocycline, 48 hr. The class given is cell-based, Acinetobacter baumannii. The method, then: The TimTec ActiProbe-25K diversity-set and Natural Product compound libraries (29,900 compounds total; TimTec, Newark, Del.) were initially screened for putative efflux pump inhibitors by identifying compounds that potentiated the antimicrobial property of a sub-inhibitory concentration of minocycline toward A. baumannii grown in human serum. To do so, A. baumannii strain 98-37-09 was grown for 16 hours in LB medium at 37° C. on a rotary shaker at 225 rpm. Approximately 1×10^5 CFU were then transferred to individual wells of a 96-well round-bottom plate (Corning Costar, Tewksbury, Mass.) containing 100 μL of human serum supplemented with of minocycline (0.5 μg mL^−1; 0.5× minimum inhibitory concentration in serum) and individual members of the Timtec ActiProbe or Natural product library (50 μM). Plates were then incubated at 37° C. for 48 hours. Growth was measured as a function of turbidity. Putative efflux pump inhibitors were identified as compounds that inhibited A. baumannii growth in human serum containing minocycline and were subsequently retested in triplicate, as indicated above. Untreated A. baumannii grown in serum supplemented with minocycline+/−PAβN served as positive and negative controls, respectively. […] Repeat testing in which well constituents were serial diluted and plated on LB agar plates validated that 85 compounds did indeed limit A. baumannii growth in serum supplemented with minocycline, reducing the number of viable colony forming units between 2-6 log cfu in comparison to minocycline alone treated cells.
The MEC was defined as the lowest concentration of test compound required to inhibit the growth of A. baumannii in serum in the presence of 0.5 μg ml^−1 minocycline. Plating confirmed that addition of 1×MEC of each compound elicited ≥1.9-log reduction in A. baumannii cells grown in serum supplemented with minocycline alone (see Table 1).

Take `N#CC1=C(N)n2c(s/c(=C\c3ccccc3Cl)c2=O)=C(C#N)C1c1ccccc1Cl` (stereo not drawn) [ST006953]: in assay [1], the “Minocylcine Per Cell (femtomoles cell^−1)” value (“Minocylcine Per Cell” below) came out at 4.31E−08 femtomoles cell^−1. In assay [2], the “Log-reduction Colony Forming Units (ml^−1)” value stood at 2.71 log and the MEC turned out to be 4 µg/mL.

As to `Cc1ccc(C2N(Cc3ccccc3)CCN2Cc2ccccc2)s1` [ST008277], in assay [1], the “Minocylcine Per Cell” value was determined as 4.41E−08 femtomoles cell^−1. Further, in assay [2], the “Log-reduction Colony Forming Units (ml^−1)” value was determined as 5.19 log and the MEC is 4 µg/mL.

With `Cc1cc(O)c(C(C)C)cc1C1(c2cc(C(C)C)c(O)cc2C)OC(=O)c2ccccc21` [ST009495], the “Minocylcine Per Cell” value in assay [1] is recorded as 4.7E−08 femtomoles cell^−1. In addition, in assay [2], the “Log-reduction Colony Forming Units (ml^−1)” value is on record as 2.23 log and the MEC came to 2 µg/mL.

`Oc1ccccc1/C=N/c1nccs1` [ST009531]: in assay [1], the “Minocylcine Per Cell” value is reported as 5.88E−09 femtomoles cell^−1. Moreover, in assay [2], the “Log-reduction Colony Forming Units (ml^−1)” value is 2.77 log and the MEC stood at 2 µg/mL.

Regarding `NS(=O)(=O)c1ccc(/N=C/c2ccccc2O)cc1` [ST009655], in assay [1], the “Minocylcine Per Cell” value came to 2.61E−07 femtomoles cell^−1. In addition, in assay [2], the “Log-reduction Colony Forming Units (ml^−1)” value is reported as 6.67 log and the MEC was 2 µg/mL.

As to `Cc1ccc(/C=N/c2ccc(S(N)(=O)=O)cc2)cc1` [ST009696], in assay [1], the “Minocylcine Per Cell” value is given as 8.2E−09 femtomoles cell^−1. In addition, in assay [2], the “Log-reduction Colony Forming Units (ml^−1)” value amounted to 5.67 log and the MEC came to 4 µg/mL.

As to `CCOC(=O)C1=C(N)OC2=C(C(=O)CCC2)C1c1sccc1C` (stereo not drawn) [ST009847], in assay [1], the “Minocylcine Per Cell” value worked out at 2.54E−07 femtomoles cell^−1. Further, in assay [2], the “Log-reduction Colony Forming Units (ml^−1)” value came to 4.97 log and the MEC is 2 µg/mL.

`N#CC1=C(N)OC2=C(C(=O)CCC2)C1c1c(Cl)cccc1Cl` (stereo not drawn) [ST009850]: the “Minocylcine Per Cell” value in assay [1] was determined as 7.25E−08 femtomoles cell^−1. In assay [2], the “Log-reduction Colony Forming Units (ml^−1)” value is 2.47 log and the MEC turned out to be 2 µg/mL.

Regarding `O=C(N/N=C/c1cccs1)c1ccncc1` [ST010260], the “Minocylcine Per Cell” value in assay [1] came to 3.27E−08 femtomoles cell^−1. Besides, in assay [2], the “Log-reduction Colony Forming Units (ml^−1)” value stood at 2.66 log and the MEC came to 16 µg/mL.

On to `NS(=O)(=O)c1ccc(/N=C/c2cc(Br)ccc2O)cc1` [ST010344], for which the “Minocylcine Per Cell” value in assay [1] amounted to 2.98E−08 femtomoles cell^−1. Further, in assay [2], the “Log-reduction Colony Forming Units (ml^−1)” value is 5.29 log and the MEC was determined as 32 µg/mL.

For `O=S(=O)(Nc1nccs1)c1ccc(/N=C/c2ccc3c(c2)OCO3)cc1` [ST012901], in assay [1], the “Minocylcine Per Cell” value was 4.16E−09 femtomoles cell^−1. In assay [2], the “Log-reduction Colony Forming Units (ml^−1)” value was 2.66 log and the MEC turned out to be 2 µg/mL.

On to `N=C(N)NS(=O)(=O)c1ccc(/N=C/c2c(O)ccc3ccccc23)cc1` [ST012929], for which the “Minocylcine Per Cell” value in assay [1] came to 2.74E−08 femtomoles cell^−1. Also, in assay [2], the “Log-reduction Colony Forming Units (ml^−1)” value is recorded as 4.64 log and the MEC was found to be 32 µg/mL.

`O=S(=O)(Nc1nccs1)c1ccc(/N=C/c2c(O)ccc3ccccc23)cc1` [ST012934]: the “Minocylcine Per Cell” value in assay [1] worked out at 2.28E−08 femtomoles cell^−1. Besides, in assay [2], the “Log-reduction Colony Forming Units (ml^−1)” value was determined as 4.42 log and the MEC came to 32 µg/mL.
